The METLIN SMRT retention time set (Domingo-Almenara et al. 2019)

Assay: gradient 5% acetonitrile 3 min, to 50% in 2 min, to 85% in 15 min, held 3 min, 100 µL/min
Settings: column: Zorbax Extend-C18 2.1 x 50 mm; eluents: water / acetonitrile, 0.1% formic acid
How it was run: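 Each retention time is based on an adduct peak selected computationally and verified by manual inspection. Measurements used HPLC–quadrupole time-of-flight mass spectrometry in positive and negative ionization mode on mixtures of ~100 pure standards. Chromatography ran on a Zorbax Extend-C18 column (2.1 × 50 mm, 1.8 μm) at 100 μL/min with water and acetonitrile, each containing 0.1% formic acid, and dead and dwell volumes of 40 μL and 900 μL.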

RP-LC retention time	SMILES
778 s	COc1ccccc1CNC(=O)C1CCN(c2ccc(SCc3ccccc3)nn2)CC1
616 s	CCOC(=O)c1noc2nc(C)nc(N3CCN(Cc4ccccc4)CC3)c12
811 s	CN1C(=O)C2(CCN(C(=O)c3cccc(Cl)c3)C2)c2ccccc21 (stereo not drawn)
682 s	CCN1CCC(N(Cc2cccs2)C(=O)Nc2ccc(Cl)cc2)CC1
863 s	Cc1nc2nc(-c3ccccc3)nn2c(Sc2ccc(N)cc2)c1C
1080 s	CCc1ccc(Nc2nc(C(=O)NCCC3=CCCCC3)nc3ccccc23)cc1
754 s	COc1ccc(S(=O)(=O)N2CCN(c3cc(C)nc(N4CCCC4)n3)CC2)cc1Cl
680 s	COc1cccc(Nc2nc3ccncc3n(C(C)C)c2=O)c1
924 s	CCC(C(=O)NCCc1ccc(Cl)cc1)n1cnc2oc(C)c(C)c2c1=O (stereo not drawn)
656 s	O=C(C1CCCCC1)N1CCC(c2noc(CO)n2)C1 (stereo not drawn)
743 s	O=C(Cc1ccsc1)N1CCOc2ccc(N3CCOCC3)cc2C1
615 s	Cc1ccc(F)c2c(=O)c3c([nH]c12)CCN(CC(=O)Nc1ccc2c(c1)OCO2)C3
728 s	Cc1cc(Br)ccc1NC(=O)CCc1c(-c2ccc(F)cc2)nc2ccccn12
737 s	CCOC(=O)c1ccc(Nc2cc(C(=O)N3CCCCC3)nc3cc(OC)c(OC)cc23)cc1
753 s	COc1ccc(C)cc1NC(=O)N1CC(c2nc(C)no2)C2(CCOCC2)C1 (stereo not drawn)
654 s	COc1cccc(NC(=O)Nc2cc(-c3cn4cccnc4n3)ccc2OC)c1
713 s	CC(C)c1ccc(Nc2c(-c3ccc(O)cc3)nc3ncccn23)cc1
730 s	Cc1c(C(=O)O)nnn1-c1ccc(C(F)(F)F)cc1
944 s	O=C(Cn1cccc1-c1nc(-c2ccc(F)cc2)no1)Nc1ccc2c(c1)OCCO2
906 s	O=C(C1=NN(CCc2ccccc2)c2cc(Cl)ccc2S1(=O)=O)N1CCOCC1
967 s	CC1CN(CC(=O)NCc2ccc3c(c2)OCO3)c2ccccc2S1 (stereo not drawn)
847 s	CS(=O)(=O)N1CC(C(=O)Nc2ccc3c(c2)OCCO3)C2(CCCCC2)C1 (stereo not drawn)

RP-LC retention time	SMILES
610 s	O=C(NCC1(CO)CC1)C(=O)Nc1cccc(N2CCCCC2=O)c1
1150 s	COC(=O)c1ccc2c(=O)n(-c3cccc(F)c3)c(N3CCCCC3)nc2c1
670 s	O=c1c2cc([N+](=O)[O-])ccc2nc(CN2CCN(c3ccccn3)CC2)n1-c1ccccc1F
1080 s	Cc1ccc(Oc2nccn3c(=O)n(CC(=O)NC(C)CCc4ccccc4)nc23)cc1 (stereo not drawn)
1200 s	Cc1cccc(-c2noc(Cc3nc(-c4ccc5c(c4)OCO5)cs3)n2)c1
799 s	COC(=O)c1cc(OCC(=O)Nc2ccccc2F)c2ccccc2n1
959 s	COc1ccc(CNC(=O)C(C)n2ccc3cc(S(=O)(=O)N4CCCCC4)ccc32)c(OC)c1 (stereo not drawn)
1040 s	Cc1ccc(S(=O)(=O)NCCC(=O)N2CCCC2c2nc(-c3ccc(Cl)cc3)no2)cc1 (stereo not drawn)
553 s	Cn1cc(C(=O)N2CCCC(c3nnc4n3CCN(C3CCCC3)C4)C2)cn1 (stereo not drawn)
667 s	O=C(NCC(F)(F)F)C1CN(C(=O)c2ccc(F)c(F)c2)C1
895 s	COc1ccc(NC(=O)c2cc3c(=O)n(CC(C)C)ccc3n2C)cc1Cl
655 s	O=C(c1ccc(C(F)(F)F)cc1)N1CCN(c2nc(CN3CCOCC3)cs2)CC1
747 s	COc1ccc(NC(=O)C2CCCN(c3ncnc4c3oc3ccccc34)C2)cc1 (stereo not drawn)
890 s	O=C(c1ccc(Cl)c(Cl)c1)N1CCC2(CC1)OCCS2
939 s	CCCCn1c(=O)c2c(nc3n2CCN3c2ccc(OC)cc2)n(C)c1=O
716 s	CCOC(=O)c1cnc2nc(C)ccc2c1Nc1ccc(F)cc1F
1060 s	Cc1cccc(Sc2nccnc2N2CCC(C(=O)NCc3ccccc3)CC2)c1
891 s	Cc1ccc(C(=O)N2CCN(c3ccc(-c4nc(C)c(C)s4)cn3)CC2)s1
696 s	COCc1nc2cccnc2n1C1CCN(C(=O)Nc2cc(OC)ccc2OC)CC1
745 s	CC(=O)Nc1ccc(SCC(=O)Nc2ccc(OC(F)(F)F)cc2)nn1
1040 s	Cc1cc(C)cc(N2CC(c3nc(-c4ccc5c(c4)OCO5)no3)CC2=O)c1 (stereo not drawn)
939 s	COCCCNC(=O)N1CCCCCC1c1ccc(C)cc1 (stereo not drawn)

RP-LC retention time	SMILES
1090 s	CCOC(=O)c1c(C)n(C)c2cc(Br)c(OC)cc12
748 s	CC(C)CNC(=O)CCc1nc2ccccc2n(CC(=O)NCc2ccc3c(c2)OCO3)c1=O
599 s	CS(=O)(=O)N1C[C@H]2CCN(Cc3ccc(Cl)cc3F)C[C@H]21
759 s	COc1ccc(N2CC(c3nnc(NC(=O)c4ccc(Br)cc4)o3)CC2=O)cc1 (stereo not drawn)
1070 s	c1ccc(-c2noc(N3CCCCC3)n2)cc1
837 s	Cc1c(-c2noc(C(=O)N3CCN(Cc4ccc5c(c4)OCO5)CC3)n2)oc2c(C)cccc12
587 s	CCCC(=O)Nc1ccc2nc(N3CCN(CC(=O)N4CCCCCC4)CC3)cc(C(=O)O)c2c1
918 s	O=C(c1ccc2cc[nH]c2c1)N1CCN(C(=O)c2nnn3c2COC(c2ccc(Cl)cc2)C3)CC1 (stereo not drawn)
1010 s	Cc1ccc(C)c(-n2ccn(Cc3nc(-c4ccc(F)c(Cl)c4)no3)c(=O)c2=O)c1
634 s	O=C(O)CCCCC1SCC2NC(=O)NC21 (stereo not drawn)
609 s	c1cc(-c2nc(-c3ccc4c(c3)ncn4CCN3CCCCC3)no2)cs1
817 s	CCn1cc(C(=O)NCC2CC2)c(S(=O)(=O)N2CCSCC2)n1
1100 s	Cc1nc(-c2cc(S(=O)(=O)Nc3cc(F)ccc3F)c(C)s2)sc1C
957 s	CCc1nc2c(NC(=O)c3ccc(C(F)(F)F)cc3)cccn2n1
660 s	CCn1c(N2CCN(C(=O)Nc3cc(OC)cc(OC)c3)CC2)nc2ccccc21
579 s	Cc1ccccc1Cn1cc(-c2ccncc2)cc1C(=O)NC(C)c1cccnc1 (stereo not drawn)
889 s	Cc1ccc(CNC(=O)c2cccc3c2CCN3C(=O)c2ccc(F)cc2)o1
972 s	CCc1ccc(S(=O)(=O)N2CCC(n3c(-c4ccco4)nc4cccnc43)C2)cc1 (stereo not drawn)
661 s	CCC(C)NC(=O)Cn1nc2cc(C)nc(-c3ccc(C(F)(F)F)cc3)n2c1=O (stereo not drawn)
802 s	COc1ccc2[nH]cc(CCN3CC(C(=O)N4CCc5ccccc54)CC3=O)c2c1 (stereo not drawn)
963 s	CCOc1ccc(-n2c(N3CCCC3)nc3cc(C(=O)OC)ccc3c2=O)cc1
904 s	COC(=O)c1ccc(CSc2nnc(NC(=O)c3nc4ccccc4s3)s2)o1

RP-LC retention time	SMILES
731 s	CCn1cnc2cc(-c3noc(C4CC(=O)N(c5cccc(Cl)c5)C4)n3)ccc21 (stereo not drawn)
783 s	O=C(CN1C(=O)CCCc2ccccc21)NCCc1ccccc1
709 s	O=c1c2nnc3ccnn3c2ccn1CCc1c[nH]c2ccc(F)cc12
704 s	CCOCc1nc(C2CCCN(C(=O)NC(C)C)C2)no1 (stereo not drawn)
752 s	O=C(Nc1c(-c2ccc(F)cc2)nc2ccccn12)c1ccc2ccccc2c1
827 s	CC1(C)Cc2cccc(OCC(=O)N3CCC(c4nnc(-c5ccco5)s4)CC3)c2O1
1340 s	CCOc1nc2ccccc2nc1N1CCCC(C(=O)Nc2ccc(Br)cc2)C1 (stereo not drawn)
759 s	CCNC(=O)C1CCCN(c2nc3ncn(CC(=O)Nc4ccc(C(C)C)cc4)c(=O)c3s2)C1 (stereo not drawn)
866 s	CCn1c(=O)c(C)nc2cc(-c3noc(C(C)NC(=O)c4ccco4)n3)ccc21 (stereo not drawn)
820 s	CCCn1cc(CCNS(=O)(=O)c2ccccc2F)c2cccnc21
642 s	O=C(CN1C(=O)CCC1=O)Nc1nnc(-c2ccc(Cl)s2)o1
797 s	CCOC(=O)COc1cc(-c2ccccc2)nc2ccc(NC(=O)Cc3cccs3)cc12
906 s	CCc1nnc(NC(=O)c2ccc(-c3ccccc3Cl)o2)s1
864 s	CCCN(CC1CCOC1)C(=O)Nc1cccc(CC)c1 (stereo not drawn)
832 s	Cc1ccc(-c2nc(-n3c(C)c4c(C)nnc(C)c4c3C)sc2C)cc1C
1140 s	CC(C)Cc1ccc(S(=O)(=O)N2CCC(C(=O)NCc3csc(-c4ccccc4)n3)CC2)cc1
922 s	O=C(C1COc2ccccc2O1)N1CCCC(c2nnc(-c3ccccc3F)s2)C1 (stereo not drawn)
745 s	COc1ccccc1N1C(=O)N(c2ccc([N+](=O)[O-])cc2)C2CS(=O)(=O)CC21 (stereo not drawn)
1290 s	CCCCCn1c(=O)c2ccccc2n(Cc2nc(-c3ccc(F)c(Cl)c3)no2)c1=O
755 s	Cc1cc(C(=O)N2CCCCCC2c2nnc(C)o2)c(C)o1 (stereo not drawn)
984 s	O=c1n(Cc2ccccc2F)nc2ccc(S(=O)(=O)N3CCc4ccccc4C3)cn12
564 s	COc1ccc(F)cc1S(=O)(=O)N1CCC2(CC1)c1nccn1CCN2C
